# Test: Full RFB cell cycling, anolyte-limiting, BTMAP-Fc catholyte
# Settings: for capacity decay in RFB cycling: anolyte-limiting
# Method: The RFB measurements were carried out in a custom-made zero-gap device previously reported by Li et al. (Li, W. et al., Chem 2018, 4 (11), 2644-2657; and Li, W. et al., Adv. Energy Mater. 2019, 9 (31), 1900918.) Both symmetric flow cell and RFB full cell measurements were conducted using a Bio-Logic SP-200 potentiostat at room temperature (˜20° C.). In symmetric cells, 0.1 M of active species in 1 M NaCl (pre-charged to 50% SOC of the first electron reduction using FcNCl as the counter cathode in bulk electrolysis) was utilized on both sides with the capacity limiting side (CLS) consisting of 5 mL of solution and the non-capacity limiting side (NCLS) consisting of 10 mL of solution separated by a Selemion AMV anion-exchange membrane (Asahi Glass Co.). The neat Dex-Vi full RFB cell cycling was performed using the product from the Dex-Vi synthesis directly without any purification. The neat product was diluted to roughly 0.1 M to pair with a 0.2 M BTMAP-Fc counter catholyte in excess capacity separated by an AMV membrane. Both the anolyte and catholyte were 5 mL in total volume with 0.5 M NaCl supporting electrolyte. The first electron high concentration Dex-Vi RFB full cell cycling was performed using 5 mL of 1.5 M Dex-Vi as the anolyte and 10 mL 0.75 M BTMAP-Fc as the catholyte, both of which were prepared in pure water without any supporting salt, with a DSV anion-exchange membrane. The second-electron high concentration full cell cycling was performed using 5 mL of 1.5 M Dex-Vi in water as the anolyte, 20 mL of 0.75 M BTMAP-Fc in water as the catholyte, and a DSV anion-exchange membrane. Rate performance was investigated using 0.1 M Dex-Vi anolyte and 0.2 M BTMAP-Fc catholyte both in 1 M NaCl with DSV anion-exchange membrane.
# Graphite plates (⅛-inch thickness, MWI Inc.) with a 20×20×1.2 mm pocket were used as current collectors for RFB devices. 4 cm^2 graphite felt electrodes (GFD 3 EA, […]®) were pre-treated at 400° C. in air for 6 hr before being used on both sides of the cell. 25×25 mm Selemion AMV or DSV was presoaked in 1.0 M NaCl for more than 24 hr before it was used as an anion-exchange membrane. The cell was assembled with four pieces of die cut PTFE sheets (0.04-inch thickness) as gaskets and tightened with eight #10-24 bolts. The electrolytes were pumped through the flow channels by a peristaltic pump (Cole-Parmer Masterflex L/S) via PharMed BPT tubing. The electrolyte flow rate was controlled at 20 mL·min^−1 for all RFB measurements. 10 mL custom made glass vials with two 4 mm OD electrolyte inlet/out arms were used as electrolyte reservoirs. […]
structure (smiles),measurement,setting,value
"C[N+](C)(C)CC(O)C[n+]1ccc(-c2cc[n+](CC(O)C[N+](C)(C)C)cc2)cc1 (stereo not shown) [Dex-Vi, bis(3-trimethylammonio-2-hydroxy)propyl viologen tetrachloride]",capacity decay in RFB cycling,"0.1 M, two weeks (1,200+ cycles)",no observable decay
same,capacity decay in RFB cycling,"1.5 M, one month continual cycling",no discernable decay
same,Anolyte-limiting RFB Stability,Table 1,~0% decay/year
same,RFB Viologen Molarity (1e^−),Table 1,1.5

# From US12291513B2, “Pyridinium derivatives made by hydrothermal synthesis for use as anolytes in electrochemical cells” (Wisconsin Alumni Research Foundation, priority 2021, dated 2025)
